Laboratory results taken from PMC9637222, “Autoinducer-2 and bile salts induce c-di-GMP synthesis to repress the T3SS via a T3SS chaperone” (Nature Communications, 2022).
Values joined by “and” are separate entries in the source; they are usually repeats but may differ in a detail not shown here. Identical values can stand only once. Like-named read-outs stand apart in the source and are kept apart here.

Tests used:
SipC-His6 / SicA-HA = test: Co-IP of SipC-His6 with SicA-HA in presence of c-di-GMP; conditions: dose-dependent
BicA (WP_009896148) = biological target: T1, BicA (WP_009896148) (Burkholderia thailandensis, UniProt Q2T712); format: binding
T1 sequence (Q2T712 1-171): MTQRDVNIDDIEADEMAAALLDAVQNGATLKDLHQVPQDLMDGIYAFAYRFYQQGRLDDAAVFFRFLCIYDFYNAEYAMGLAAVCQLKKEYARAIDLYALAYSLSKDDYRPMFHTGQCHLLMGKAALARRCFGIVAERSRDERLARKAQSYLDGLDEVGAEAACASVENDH

SipB-His6 / SicA-HA = test: Co-IP of SipB-His6 with SicA-HA in presence of c-di-GMP; conditions: dose-dependent
CesD (WP_000379288) = biological target: T2, CesD (WP_000379288) (Escherichia coli O157:H7, UniProt Q8X6H6); format: binding, EHEC O157:H7; conditions: for Kd: ITC
T2 sequence (Q8X6H6 1-163): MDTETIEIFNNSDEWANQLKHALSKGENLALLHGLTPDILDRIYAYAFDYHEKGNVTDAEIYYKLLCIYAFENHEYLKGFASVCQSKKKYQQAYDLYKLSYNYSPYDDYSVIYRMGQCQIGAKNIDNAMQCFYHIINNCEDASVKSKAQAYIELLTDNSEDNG

[1] = test system: T3, T3SS ATPase InvC (STM2894); test: ITC: c-di-GMP binding to T3SS ATPase InvC; conditions: T3SS ATPase from S. Typhimurium
T3 construct: His6 (N, cleaved yes); made in house; host or cells: E. coli BL21(DE3) (pET28a-invC)
Protocol: (§1) Supplementary Fig. 25 Neither the T3SS ATPase InvC (STM2894) from S. Typhimurium nor the T3SS ATPase PA1697 from P. aeruginosa interacts with c-di-GMP
(§2) The binding affinity was evaluated by ITC analysis. ITC data and plots of injected heat for automatic injections of 100 μM c-di-GMP into the sample cell containing 10 μM InvC (a) or PA1697 (b) are shown inthe upper and lower plots, respectively. […]
(§3) the finalanalysis. Results shown are one representative of three experiments with similar results.

SicA N70A = biological target: T4, SicA N70A (Salmonella typhimurium, UniProt P69066, N70A); format: binding, S. Typhimurium
T4 construct: His6 (N, cleaved yes); made in house; host or cells: E. coli BL21(DE3), pET-28a (pET28a-sicAN70A)
T4 sequence (P69066 whole entry N70A): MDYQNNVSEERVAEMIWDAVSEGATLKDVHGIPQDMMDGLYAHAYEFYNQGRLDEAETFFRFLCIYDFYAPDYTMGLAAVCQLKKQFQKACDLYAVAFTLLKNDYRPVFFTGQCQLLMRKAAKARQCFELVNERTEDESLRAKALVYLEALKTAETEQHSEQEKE

InvF = biological target: T5, InvF (Salmonella typhimurium, UniProt P69343); test: ITC: c-di-GMP binding to InvF; set-up: His6 (N, cleaved yes); made in house; host or cells: E. coli BL21(DE3), pET-28a (pET28a-invF); species or system S. Typhimurium
T5 sequence (P69343 1-216): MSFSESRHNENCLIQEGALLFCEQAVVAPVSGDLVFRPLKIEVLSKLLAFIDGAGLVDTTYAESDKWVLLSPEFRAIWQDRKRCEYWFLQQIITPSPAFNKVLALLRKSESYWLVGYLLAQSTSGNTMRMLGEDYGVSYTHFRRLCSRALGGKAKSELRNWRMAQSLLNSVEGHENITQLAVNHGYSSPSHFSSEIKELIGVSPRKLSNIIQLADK

IpgC (WP_000055835) = biological target: T6, IpgC (WP_000055835) (Shigella flexneri, UniProt P0A2U4); format: binding, S. flexneri serotype 2a; conditions: for Kd: ITC
T6 construct: His6 (N, cleaved yes); made in house; host or cells: E. coli BL21(DE3), pET-28a (pET28a-ipgC)
T6 sequence (P0A2U4 whole entry): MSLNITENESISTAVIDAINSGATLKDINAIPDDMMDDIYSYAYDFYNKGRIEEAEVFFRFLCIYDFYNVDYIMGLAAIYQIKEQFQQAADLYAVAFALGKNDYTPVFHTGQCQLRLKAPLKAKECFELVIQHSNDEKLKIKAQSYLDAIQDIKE

SicA D67A = biological target: T7, SicA D67A (Salmonella typhimurium, UniProt P69066, D67A); format: binding, S. Typhimurium
T7 construct: His6 (N, cleaved yes); made in house; host or cells: E. coli BL21(DE3), pET-28a (pET28a-sicAD67A)
T7 sequence (P69066 whole entry D67A): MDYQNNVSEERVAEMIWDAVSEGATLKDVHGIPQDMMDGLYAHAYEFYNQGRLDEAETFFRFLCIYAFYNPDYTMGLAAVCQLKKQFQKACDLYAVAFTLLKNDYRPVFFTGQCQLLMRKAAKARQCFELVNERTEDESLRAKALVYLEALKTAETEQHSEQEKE

InvF-His6 / SicA-HA = test: Co-IP of InvF-His6 with SicA-HA in presence of nucleotides; conditions: nucleotide added to lysate
SycD (WP_010891209) = biological target: T8, SycD (WP_010891209) (Yersinia enterocolitica, UniProt O87496); format: binding; conditions: for Kd: ITC
T8 sequence (O87496 1-168): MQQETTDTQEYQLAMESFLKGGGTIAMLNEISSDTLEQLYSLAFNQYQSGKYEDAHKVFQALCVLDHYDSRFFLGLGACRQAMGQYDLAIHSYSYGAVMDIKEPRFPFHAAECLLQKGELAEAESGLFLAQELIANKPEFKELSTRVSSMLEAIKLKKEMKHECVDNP

SicA K27A = biological target: T9, SicA K27A (Salmonella typhimurium, UniProt P69066, K27A); format: binding, S. Typhimurium
T9 construct: His6 (N, cleaved yes); made in house; host or cells: E. coli BL21(DE3), pET-28a (pET28a-sicAK27A)
T9 sequence (P69066 whole entry K27A): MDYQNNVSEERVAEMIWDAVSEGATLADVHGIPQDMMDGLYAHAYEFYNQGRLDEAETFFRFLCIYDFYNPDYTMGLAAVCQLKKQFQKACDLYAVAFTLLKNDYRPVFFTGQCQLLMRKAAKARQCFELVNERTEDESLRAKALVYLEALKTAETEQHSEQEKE

T3SS ATPase PA1697 = test: ITC: c-di-GMP binding to T3SS ATPase PA1697; conditions: T3SS ATPase from P. aeruginosa
Protocol: as §1, §2, §3

SicA D28A = biological target: T10, SicA D28A (Salmonella typhimurium, UniProt P69066, D28A); format: binding, S. Typhimurium
T10 construct: His6 (N, cleaved yes); made in house; host or cells: E. coli BL21(DE3), pET-28a (pET28a-sicAD28A)
T10 sequence (P69066 whole entry D28A): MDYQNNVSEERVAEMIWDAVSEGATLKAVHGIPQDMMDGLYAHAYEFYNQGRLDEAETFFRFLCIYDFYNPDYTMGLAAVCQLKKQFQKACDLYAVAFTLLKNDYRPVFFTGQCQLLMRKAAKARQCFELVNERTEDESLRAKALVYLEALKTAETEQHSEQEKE

[2] = range given for all 6 chaperones (PcrH, IpgC, SycD, CesD, BicA, VcrH), read-out: Kd

Structure (SMILES): Nc1nc2c(ncn2C2OC3COP(=O)(O)OC4C(COP(=O)(O)OC3C2O)OC(n2cnc3c(=O)[nH]c(N)nc32)C4O)c(=O)[nH]1 (stereo not drawn) [c-di-GMP, Cyclic di-GMP]
- Effect on co-IP of SipC-His6 with SicA-HA (in words) (SipC-His6 / SicA-HA): decreased
- Kd (BicA (WP_009896148)): 150 to 220 nM
- n, c-di-GMP binding to BicA (BicA (WP_009896148)): 1.12 and 1.17 and 1.14
- Kd (BicA (WP_009896148); read-out: Kd, c-di-GMP binding to BicA): 190 nM and 200 nM and 240 nM
- Effect on co-IP of SipB-His6 with SicA-HA (in words) (SipB-His6 / SicA-HA): decreased
- n, c-di-GMP binding to CesD (CesD (WP_000379288); ITC binding stoichiometry n, individual replicates, Supplementary Figure 22d): 1.03 and 1.09 and 1.15
- Kd (CesD (WP_000379288); individual replicates, Supplementary Figure 22d, read-out: Kd, c-di-GMP binding to CesD): 170 nM and 180 nM and 190 nM
- Kd (CesD (WP_000379288); [2]): 150 to 220 nM
- Interaction with T3SS ATPase (in words) [1]: no interactions
- n, c-di-GMP binding to SicAN70A (SicA N70A; ITC binding stoichiometry n, individual replicates, Supplementary Figure 17e): 0.95 and 1.03
- Increase in Kd, SicA N70A versus SicA (SicA N70A; ITC, peer review file): 140 fold
- Kd (SicA N70A; binding to SicA N70A): 28000 nM and 31000 nM and 32000 nM
- Binding to InvF (in words) (InvF): does not bind
- n, c-di-GMP binding to IpgC (IpgC (WP_000055835); ITC binding stoichiometry n, individual replicates, Supplementary Figure 22b): 1.23 and 1.10 and 1.13
- Kd (IpgC (WP_000055835); individual replicates, Supplementary Figure 22b, read-out: Kd, c-di-GMP binding to IpgC): 200 nM and 250 nM and 220 nM
- Kd (IpgC (WP_000055835); [2]): 150 to 220 nM
- n, c-di-GMP binding to SicAD67A (SicA D67A; ITC binding stoichiometry n, individual replicates, Supplementary Figure 17d): 0.99 and 1.02 and 0.94
- Kd (SicA D67A; binding to SicA D67A): 33000 nM and 34000 nM and 32000 nM
- Effect on co-IP of InvF-His6 with SicA-HA (in words) (InvF-His6 / SicA-HA): impaired
- n, c-di-GMP binding to SycD (SycD (WP_010891209); ITC binding stoichiometry n, individual replicates, Supplementary Figure 22c): 1.15 and 1.12
- Kd (SycD (WP_010891209); individual replicates, Supplementary Figure 22c, read-out: Kd, c-di-GMP binding to SycD): 180 nM and 150 nM and 160 nM
- Kd (SycD (WP_010891209); [2]): 150 to 220 nM
- n, c-di-GMP binding to SicAK27A (SicA K27A; ITC binding stoichiometry n, individual replicates, Supplementary Figure 17a): 1.03 and 0.93 and 0.96
- Kd (SicA K27A; binding to SicA K27A): 41000 nM and 33000 nM and 39000 nM
- Interaction with T3SS ATPase (in words) (T3SS ATPase PA1697): no interactions
- n, c-di-GMP binding to SicAD28A (SicA D28A; ITC binding stoichiometry n, individual replicates, Supplementary Figure 17b): 1.08 and 1.02 and 0.98
- Kd (SicA D28A; binding to SicA D28A): 21000 nM and 26000 nM and 20000 nM
